How the values were obtained:
[1] = biological target: Protein farnesyl/geranylgeranyl transferase (Homo sapiens) (UniProt P49354+P49356+P53609); assay: Selectivity ratio of IC50 Geranylgeranyl transferase to that of IC50 Farnesyltransferase; assay type: protein-complex assay
[2] = biological target: Geranylgeranyl transferase type I (Homo sapiens, UniProt P49354+P53609); assay: In vitro inhibition of the human Geranylgeranyl transferase-catalyzed incorporation of [3H]GGPP into biotinylated peptide corresponding to the C-terminal of human K-Ras.; assay type: protein-complex assay
[3] = biological target: Protein farnesyltransferase (Homo sapiens, UniProt P49354+P49356); assay: In vitro inhibition of the human FTase-catalyzed incorporation of [3H]FPP into recombinant Ras CVIM.; assay type: protein-complex assay
NIH3T3 = assay: In vitro reduction of farnesylation in NIH-3T3H-ras cell line.; assay type: functional, cell-based; settings: Mus musculus

Structure (SMILES)	Selectivity [1]	IC50 [2]	IC50 [3]	EC50 (NIH3T3)
CCCCCCC#Cc1cc(C#N)ccc1COC(c1ccc(C#N)cc1)c1cncn1C (centres undefined)	178	160 nM	0.9 nM	> 0.1 nM
Cn1cncc1C(OCc1ccc(C#N)cc1C#Cc1ccc(-c2ccccc2)cc1)c1ccc(C#N)cc1 (centres undefined)	> 1000	> 10000 nM	10 nM	> 0.1 nM
Cn1cncc1C(OCc1ccc(C#N)cc1C#CC1(O)CCCCC1)c1ccc(C#N)cc1 (centres undefined)	971	845 nM	0.87 nM	1.93 nM
Cn1cncc1C(OCc1ccc(C#N)cc1C#CC(C)(C)C)c1ccc(C#N)cc1 (centres undefined)	790	490 nM	0.62 nM	76.9 nM
Cn1cncc1C(OCc1ccc(C#N)cc1C#CCCCCO)c1ccc(C#N)cc1 (centres undefined)	941	1600 nM	1.7 nM	20.9 nM
Cn1cncc1C(OCc1ccc(C#N)cc1C#Cc1ccc(C#N)cc1)c1ccc(C#N)cc1 (centres undefined)	196	124 nM	0.63 nM	11.6 nM
Cn1cncc1C(OCc1ccc(C#N)cc1CCC(C)(C)C)c1ccc(C#N)cc1 (centres undefined)	326	310 nM	0.95 nM	0.54 nM
Cn1cncc1C(OCc1ccc(C#N)cc1-c1ccc(-c2ccccc2)cc1)c1ccc(C#N)cc1 (centres undefined)	136	150 nM	1.1 nM	< 0.1 nM
Cn1cncc1C(OCc1ccc(C#N)cc1-c1ccccc1)c1ccc(C#N)cc1 (centres undefined)	–	–	–	140 nM
Cn1cncc1C(OCc1ccc(C#N)cc1C#Cc1ccc([N+](=O)[O-])cc1)c1ccc(C#N)cc1 (centres undefined)	273	150 nM	0.55 nM	36 nM
Cn1cncc1C(OCc1ccc(C#N)cc1C#CCCc1ccccc1)c1ccc(C#N)cc1 (centres undefined)	386	540 nM	1.4 nM	130 nM

Further lines, with some results ahead:

Selectivity [1]	IC50 [2]	IC50 [3]	Structure (SMILES)	EC50 (NIH3T3)
1900	1800 nM	0.95 nM	Cn1cncc1C(OCc1ccc(C#N)cc1C#Cc1ccccc1)c1ccc(C#N)cc1 (centres undefined)	0.1 nM
6900	9000 nM	1.3 nM	Cn1cncc1C(OCc1ccc(C#N)cc1-c1ccc(C#N)cc1)c1ccc(C#N)cc1 (centres undefined)	< 0.1 nM
5520	16000 nM	2.9 nM	Cn1cncc1C(OCc1ccc(C#N)cc1C#Cc1ccccn1)c1ccc(C#N)cc1 (centres undefined)	> 0.1 nM
1300	1300 nM	1 nM	Cn1cncc1C(OCc1ccc(C#N)cc1C#Cc1cccc(O)c1)c1ccc(C#N)cc1 (centres undefined)	> 0.1 nM
169	220 nM	1.3 nM	CCC/C=C/C=C/c1cc(C#N)ccc1COC(c1ccc(C#N)cc1)c1cncn1C (centres undefined)	16.7 nM
1120	1800 nM	1.6 nM	Cn1cncc1C(OCc1ccc(C#N)cc1/C=C/c1ccccn1)c1ccc(C#N)cc1 (centres undefined)	23.1 nM
180	110 nM	0.61 nM	Cn1cncc1C(OCc1ccc(C#N)cc1/C=C/c1ccc([N+](=O)[O-])cc1)c1ccc(C#N)cc1 (centres undefined)	2.24 nM

Reference: ChEMBL document CHEMBL1136334, “Synthesis and biological evaluation of 4-[(3-methyl-3H-imidazol-4-yl)-(2-phenylethynyl-benzyloxy)-methyl]-benzonitrile as novel farnesyltransferase inhibitor” (Bioorg Med Chem Lett, 2003)
